In US8530490B2, “Uracil compound or salt thereof having human deoxyuridine triphosphatase inhibitory activity” (Taiho Pharmaceutical Co., Ltd., priority 2008, dated 2013) one finds IC50 data, which are given here for 22 compounds.

This assay concerns the target human dUTPase (Homo sapiens (Human), UniProt P33316). The assay can be described thus: Human dUTPase inhibitory effect: production of [5-3H]dUMP from [5-3H]dUTP, measured by HPLC with flow scintillation. Format: biochemical. To be noted: [5-3H]dUMP production from [5-3H]dUTP, 37° C., 15 minutes. Here is the method: The inhibitory activity of the compound of the present invention against human dUTPase was determined by measuring the production of [5-^3H]deoxyuridine monophosphate (hereinafter, referred to as [5-^3H]dUMP) from [5-^3H]deoxyuridine triphosphate (hereinafter, referred to as [5-^3H]dUTP) according to a method shown below.
Specifically, 0.2 mL in total of a solution containing 0.02 mL of 1 μM dUTP (including 588 Bq/mL [5-3H]dUTP), 0.05 mL of a 0.2 M Tris buffer solution (pH 7.4), 0.05 mL of 16 mM magnesium chloride, 0.02 mL of 20 mM 2-mercaptoethanol, 0.02 mL of a 1% aqueous solution of fetal bovine serum-derived albumin, 0.02 mL of varying concentrations of test compound solutions or pure water as a control, and 0.02 mL of a solution of human dUTPase (expressed using E. coli and purified) was reacted at 37° C. for 15 minutes. Immediately after the reaction, the solution was heated at 100° C. for 1 minute to terminate the reaction, followed by centrifugation at 15000 rpm for 2 minutes. An aliquot (150 μL) of the supernatant thus obtained by centrifugation was analyzed using an Atlantis dC18 column (manufactured by Waters Corp., 4.6×250 mm) and a high-performance liquid chromatograph (manufactured by Shimadzu Corp., Prominence). Elution was performed at a flow rate of 0.8 mL/min for 30 minutes by a concentration gradient from a 4:6 mixed solution of a mobile phase A (10 mM potassium dihydrogen phosphate (pH 6.7), 10 mM tetrabutylammonium, and 0.25% methanol) and a mobile phase B (50 mM potassium dihydrogen phosphate (pH 6.7), 5.6 mM tetrabutylammonium, and 30% methanol) to the mobile phase B. The eluate was mixed with a scintillator (manufactured by PerkinElmer Co., Ltd., Ultima-Flo AP) at a 1:2 ratio, and the radioactivity of the produced [5-^3H]dUMP (RT 10.2 min) was measured using Radiomatic Flow Scintillation Analyzer (manufactured by PerkinElmer Co., Ltd., 525TR).
The inhibitory activity of the test compound was determined according to the formula shown below.

Sequence of human dUTPase (P33316 94-252): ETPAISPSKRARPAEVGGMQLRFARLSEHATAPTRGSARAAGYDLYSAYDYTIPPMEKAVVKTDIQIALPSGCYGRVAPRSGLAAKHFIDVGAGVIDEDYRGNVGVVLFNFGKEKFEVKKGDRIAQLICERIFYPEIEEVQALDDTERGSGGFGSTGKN

The IC50 is the concentration at which inhibition is half-maximal. Turning to `CC(C)C(NS(=O)(=O)CCCOCn1ccc(=O)[nH]c1=O)c1ccc(F)c(OCC2CC2)c1` (stereo not shown) [Example 25, N-(1-(3-(cyclopropylmethoxy)-4-fluorophenyl)-2-methylpropyl)-3-((2,4-dioxo-3,4-dihydropyrimidin-1(2H)-yl)methoxy)propane-1-sulfonamide], the IC50 is 100 nM. That is a sub-micromolar value.

Compound `CC(C)(NS(=O)(=O)CCCOCn1ccc(=O)[nH]c1=O)c1cccc(OCC2CC2)c1` [Example 26, N-(2-(3-(cyclopropylmethoxy)phenyl)propan-2-yl)-3-((2,4-dioxo-3,4-dihydropyrimidin-1(2H)-yl)methoxy)propane-1-sulfonamide] yielded an IC50 of 520 nM.

For the compound `CC[C@@H](NS(=O)(=O)CCCOCn1ccc(=O)[nH]c1=O)c1cccc(OCC2CC2)c1` [Example 27, (R)—N-(1-(3-(cyclopropylmethoxy)phenyl)propyl)-3-((2,4-dioxo-3,4-dihydropyrimidin-1(2H)-yl)methoxy)propane-1-sulfonamide], the IC50 turned out to be 40 nM.

The compound `CC(C)(NS(=O)(=O)CCCOCn1ccc(=O)[nH]c1=O)c1ccc(F)c(OCC2CC2)c1` [Example 28, N-(2-(3-(cyclopropylmethoxy)-4-fluorophenyl)propan-2-yl)-3-((2,4-dioxo-3,4-dihydropyrimidin-1(2H)-yl)methoxy)propane-1-sulfonamide] registered an IC50 of 360 nM.

`O=c1ccn(COCCCS(=O)(=O)NC(c2ccccc2)c2cccc(OCC3CCC3)c2)c(=O)[nH]1` (stereo not shown) [Example 29, N-((3-(cyclobutylmethoxy)phenyl)(phenyl)methyl)-3-((2,4-dioxo-3,4-dihydropyrimidin-1(2H)-yl)methoxy)propane-1-sulfonamide] displayed an IC50 of 890 nM. This IC50 lies about 2.5-fold higher than the previous one.

`O=c1ccn(COCCCS(=O)(=O)NC(c2cccc(OCC3CC3)c2)C2CC2)c(=O)[nH]1` (stereo not shown) [Example 30, N-(cyclopropyl(3-(cyclopropylmethoxy)phenyl)methyl)-3-((2,4-dioxo-3,4-dihydropyrimidin-1(2H)-yl)methoxy)propane-1-sulfonamide] yielded an IC50 of 360 nM.

`CC(C)C(NS(=O)(=O)CCCOCn1ccc(=O)[nH]c1=O)c1cccc(OCC2CC2)c1` (stereo not shown) [Example 31, N-(1-(3-(cyclopropylmethoxy)phenyl)-2-methylpropyl)-3-((2,4-dioxo-3,4-dihydropyrimidin-1(2H)-yl)methoxy)propane-1-sulfonamide]: half-maximal inhibition (IC50) required 330 nM. The IC50 values of the last two compounds are within 1.5-fold of each other.

`CC(NS(=O)(=O)CCCOCn1ccc(=O)[nH]c1=O)c1cccc(OC2CCCC2)c1` (stereo not shown) [Example 32, N-(1-(3-(cyclopentyloxy)phenyl)ethyl)-3-((2,4-dioxo-3,4-dihydropyrimidin-1(2H)-yl)methoxy)propane-1-sulfonamide]: the IC50 came out at 140 nM.

Take `O=c1ccn(COCCCS(=O)(=O)NCc2cccc(OC3CC3)c2)c(=O)[nH]1` [Example 33, N-(3-cyclopropoxybenzyl)-3-((2,4-dioxo-3,4-dihydropyrimidin-1(2H)-yl)methoxy)propane-1-sulfonamide]: the IC50 stood at 1130 nM.

Compound `CCC(NS(=O)(=O)CCCOCn1ccc(=O)[nH]c1=O)c1ccc(F)c(OCC2CC2)c1` (stereo not shown) [Example 34, N-(1-(3-(cyclopropylmethoxy)-4-fluorophenyl)propyl)-3-((2,4-dioxo-3,4-dihydropyrimidin-1(2H)-yl)methoxy)propane-1-sulfonamide] returned a 50% inhibitory concentration (IC50) of 30 nM.

`CC(C)[C@H](NS(=O)(=O)CCCOCn1ccc(=O)[nH]c1=O)c1ccc(F)c(OCC2CC2)c1` [Example 35, (S)—N-(1-(3-(cyclopropylmethoxy)-4-fluorophenyl)-2-methylpropyl)-3-((2,4-dioxo-3,4-dihydropyrimidin-1(2H)-yl)methoxy)propane-1-sulfonamide] returned an IC50 of 1550 nM.

The compound `CC(NS(=O)(=O)CCCOCn1ccc(=O)[nH]c1=O)c1ccc(F)c(OCC2CC2)c1` (stereo not shown) [Example 36, N-(1-(3-(cyclopropylmethoxy)-4-fluorophenyl)ethyl)-3-((2,4-dioxo-3,4-dihydropyrimidin-1(2H)-yl)methoxy)propane-1-sulfonamide] displayed an IC50 of 150 nM.

As to `O=c1ccn(COCCCS(=O)(=O)N[C@H](c2ccc(F)cc2)c2ccc(F)c(OCC3CC3)c2)c(=O)[nH]1` [Example 37, (R)—N-((3-(cyclopropylmethoxy)-4-fluorophenyl)(4-fluorophenyl)methyl)-3-((2,4-dioxo-3,4-dihydropyrimidin-1(2H)-yl)methoxy)propane-1-sulfonamide], the IC50 is 100 nM.

In the case of `O=c1ccn(COCCCS(=O)(=O)N[C@@H](c2ccc(F)c(OCC3CC3)c2)c2cccs2)c(=O)[nH]1` [Example 38, (S)—N-((3-(cyclopropylmethoxy)-4-fluorophenyl)(thiophen-2-yl)methyl)-3-((2,4-dioxo-3,4-dihydropyrimidin-1(2H)-yl)methoxy)propane-1-sulfonamide], the half-maximal inhibitory concentration (IC50) was determined as 30 nM.

On to `O=c1ccn(COCCCS(=O)(=O)NC2(c3cccc(OCC4CC4)c3)CCCC2)c(=O)[nH]1` [Example 39, N-(1-(3-(cyclopropylmethoxy)phenyl)cyclopentyl)-3-((2,4-dioxo-3,4-dihydropyrimidin-1(2H)-yl)methoxy)propane-1-sulfonamide], for which the IC50 worked out at 280 nM.

On to `O=c1ccn(COCCCS(=O)(=O)N[C@@H](c2ccc(F)c(OCC3CC3)c2)C2CC2)c(=O)[nH]1` [Example 40, (R)—N-(cyclopropyl (3-(cyclopropylmethoxy)-4-fluorophenyl)methyl)-3-((2,4-dioxo-3,4-dihydropyrimidin-1(2H)-yl)methoxy)propane-1-sulfonamide], for which the IC50 was determined as 100 nM.

As for `CC[C@@H](NS(=O)(=O)CCCOCn1ccc(=O)[nH]c1=O)c1cccc(OC2CCCC2)c1` [Example 41, (R)—N-(1-(3-(cyclopentyloxy)phenyl)propyl)-3-((2,4-dioxo-3,4-dihydropyrimidin-1(2H)-yl)methoxy)propane-1-sulfonamide], it took 40 nM to reach half-maximal inhibition (IC50).

Turning to `O=c1ccn(COCCCS(=O)(=O)N[C@@H](c2cccc(OC3CCCC3)c2)C2CC2)c(=O)[nH]1` [Example 42, (R)—N-((3-(cyclopentyloxy)phenyl)(cyclopropyl)methyl)-3-((2,4-dioxo-3,4-dihydropyrimidin-1(2H)-yl)methoxy)propane-1-sulfonamide], the IC50 is 330 nM. This IC50 is about 8.2-fold higher than that of the compound before.

Turning to `CC[C@@H](NS(=O)(=O)CCCOCn1ccc(=O)[nH]c1=O)c1cccc(OC2CC2)c1` [Example 43, (R)—N-(1-(3-cyclopropoxyphenyl)propyl)-3-((2,4-dioxo-3,4-dihydropyrimidin-1(2H)-yl)methoxy)propane-1-sulfonamide], the IC50 was found to be 90 nM. Against the preceding compound, the IC50 is about 3.7-fold lower.

As to `O=c1ccn(COCCCS(=O)(=O)NCc2ccc(F)c(OC3CCCC3)c2)c(=O)[nH]1` [Example 44, N-(3-(cyclopentyloxy)-4-fluorobenzyl)-3-((2,4-dioxo-3,4-dihydropyrimidin-1(2H)-yl)methoxy)propane-1-sulfonamide], the IC50 stood at 160 nM.

For `O=c1ccn(COCCCS(=O)(=O)NCc2cccc(OC3CCCCC3)c2)c(=O)[nH]1` [Example 45, N-(3-(cyclohexyloxy)benzyl)-3-((2,4-dioxo-3,4-dihydropyrimidin-1(2H)-yl)methoxy)propane-1-sulfonamide], the midpoint of inhibition, the IC50, lay at 2010 nM.

Take `O=c1ccn(COCCCS(=O)(=O)NCc2cccc(OC3CCOCC3)c2)c(=O)[nH]1` [Example 46, 3-((2,4-dioxo-3,4-dihydropyrimidin-1(2H)-yl)methoxy)-N-(3-(tetrahydro-2H-pyran-4-yloxy)benzyl)propane-1-sulfonamide]: half-maximal inhibition (IC50) required 2350 nM.
